Reference: ChEMBL document CHEMBL1201862, “PubChem BioAssay data set” (2004)
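All cell lines were grown in 96-well plates and treated with compound for 48 hours. GI50 marks 50% less growth.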 Calls of active or inactive are those of the source. Rule as the data show it: active = GI50 up to about 1.1 µM and inactive = higher.

Key:
Test in all cases: growth of human tumour cells (NCI), 48 h
T47D = test system: T47D
UACC-62 = test system: UACC-62
Malme-3M = test system: Malme-3M
CCRF-CEM = test system: CCRF-CEM
MDA-MB-435 = test system: MDA-MB-435
NCI-H23 = test system: NCI-H23
SK-OV-3 = test system: SK-OV-3
SF-539 = test system: SF-539
HCC 2998 = test system: HCC 2998
SN12C = test system: SN12C
MDA-N = test system: MDA-N
Hs-578T = test system: Hs-578T
NCI-H522 = test system: NCI-H522
HCT-116 = test system: HCT-116
SNB-75 = test system: SNB-75
MDA-MB-231 = test system: MDA-MB-231
UACC-257 = test system: UACC-257
KM12 = test system: KM12
K562 = test system: K562
CAKI-1 = test system: CAKI-1

Structure (SMILES) | GI50 (T47D) | GI50 (UACC-62) | GI50 (Malme-3M) | GI50 (CCRF-CEM) | GI50 (MDA-MB-435) | GI50 (NCI-H23) | GI50 (SK-OV-3) | GI50 (SF-539) | GI50 (HCC 2998) | GI50 (SN12C) | GI50 (MDA-N) | GI50 (Hs-578T) | GI50 (NCI-H522) | GI50 (HCT-116) | GI50 (SNB-75) | GI50 (MDA-MB-231) | GI50 (UACC-257) | GI50 (KM12) | GI50 (K562) | GI50 (CAKI-1)
O=C(O)c1cc(-c2ccc3c(O)ccc(O)c3c2)ccc1O | 6.4 µM (inactive) | 18.2 µM (inactive) | 18.7 µM (inactive) | 1.87 µM (inactive) | 17.5 µM (inactive) | 25.8 µM (inactive) | > 10 µM (inactive) | 16 µM (inactive) | 16.4 µM (inactive) | 15.7 µM (inactive) | 16.7 µM (inactive) | 18.7 µM (inactive) | 15.3 µM (inactive) | 16.8 µM (inactive) | 17 µM (inactive) | 23.2 µM (inactive) | 17.4 µM (inactive) | 20.3 µM (inactive) | 5.14 µM (inactive) | 16.6 µM (inactive)
C(=C\c1cccs1)/c1cccc(/C=C/c2cccs2)n1 | 6.14 µM (inactive) | > 100 µM (inactive) | 1.72 µM (inactive) | > 100 µM (inactive) | > 100 µM (inactive) | > 100 µM (inactive) | > 100 µM (inactive) | > 100 µM (inactive) | 56.9 µM (inactive) | 61 µM (inactive) | > 100 µM (inactive) | 2.58 µM (inactive) | 1.53 µM (inactive) | > 100 µM (inactive) | 19.3 µM (inactive) | > 100 µM (inactive) | > 100 µM (inactive) | 4.3 µM (inactive) | > 100 µM (inactive) | > 100 µM (inactive)
[N-]=[N+]=NC1OC(=O)C(Cl)=C1N=P(c1ccccc1)(c1ccccc1)c1ccccc1 (stereo not drawn) | > 10 µM (inactive) | > 10 µM (inactive) | > 10 µM (inactive) | 4.3 µM (inactive) | 8.17 µM (inactive) | – | > 10 µM (inactive) | > 10 µM (inactive) | > 10 µM (inactive) | > 10 µM (inactive) | 9.27 µM (inactive) | > 10 µM (inactive) | 6.67 µM (inactive) | 6.37 µM (inactive) | 6.84 µM (inactive) | 6.44 µM (inactive) | > 10 µM (inactive) | 7.85 µM (inactive) | 3.59 µM (inactive) | > 10 µM (inactive)
CCOC(=O)/C(C(=O)Nc1cccc(Cl)c1)=C(/N)N1CCOCC1 | > 100 µM (inactive) | > 100 µM (inactive) | > 100 µM (inactive) | > 100 µM (inactive) | > 100 µM (inactive) | > 100 µM (inactive) | > 100 µM (inactive) | > 100 µM (inactive) | > 100 µM (inactive) | > 100 µM (inactive) | > 100 µM (inactive) | > 100 µM (inactive) | > 100 µM (inactive) | > 100 µM (inactive) | > 100 µM (inactive) | > 100 µM (inactive) | > 100 µM (inactive) | > 100 µM (inactive) | > 100 µM (inactive) | > 100 µM (inactive)
CC1(C)CCC2=C(O1)/C(=N\Nc1ccc(F)cc1)c1ccccc1C2=O | 17.3 µM (inactive) | 14.7 µM (inactive) | 30.6 µM (inactive) | 11.8 µM (inactive) | 18.1 µM (inactive) | 25.2 µM (inactive) | 54.7 µM (inactive) | 46.9 µM (inactive) | 21.9 µM (inactive) | 32.3 µM (inactive) | 17.7 µM (inactive) | 28.4 µM (inactive) | 61.9 µM (inactive) | 31.3 µM (inactive) | 22.2 µM (inactive) | 46.7 µM (inactive) | 17.3 µM (inactive) | 31.3 µM (inactive) | 49.5 µM (inactive) | 40.4 µM (inactive)
COc1cccc(/C=C2\CCC(CN(C)C)C2=O)c1 (stereo not drawn) | 2.76 µM (inactive) | 8.24 µM (inactive) | 5.81 µM (inactive) | 1.08 µM (active) | 2.61 µM (inactive) | 8.09 µM (inactive) | 15.7 µM (inactive) | 13.9 µM (inactive) | 10.8 µM (inactive) | 5.71 µM (inactive) | 4.73 µM (inactive) | 8.71 µM (inactive) | 2.56 µM (inactive) | 3.07 µM (inactive) | 17 µM (inactive) | 4.66 µM (inactive) | 3.85 µM (inactive) | 4.11 µM (inactive) | 1.1 µM (active) | 6.76 µM (inactive)
C=C(C)C1=CCC[C@]2(C1)N=C(OC)[C@@H](C(C)C)N=C2OC | > 100 µM (inactive) | > 100 µM (inactive) | > 100 µM (inactive) | 34.3 µM (inactive) | 40.1 µM (inactive) | > 100 µM (inactive) | > 100 µM (inactive) | > 100 µM (inactive) | > 100 µM (inactive) | > 100 µM (inactive) | 32.2 µM (inactive) | > 100 µM (inactive) | 31.3 µM (inactive) | > 100 µM (inactive) | 51.2 µM (inactive) | > 100 µM (inactive) | > 100 µM (inactive) | > 100 µM (inactive) | – | > 100 µM (inactive)
CCOc1ccc(N/C(Cl)=C(Cl)\C(=C(\Nc2ccc(OCC)cc2)n2nnc3ccccc32)[N+](=O)[O-])cc1 | 4.47 µM (inactive) | 15.7 µM (inactive) | 2.32 µM (inactive) | 1.3 µM (inactive) | 6.95 µM (inactive) | 6.38 µM (inactive) | 66.5 µM (inactive) | 4.2 µM (inactive) | 13.2 µM (inactive) | 7.94 µM (inactive) | 3.82 µM (inactive) | 2.58 µM (inactive) | 1.08 µM (active) | 2.15 µM (inactive) | 18.3 µM (inactive) | 6.08 µM (inactive) | 8.3 µM (inactive) | 19.1 µM (inactive) | 2.36 µM (inactive) | 1.14 µM (inactive)
COC(=O)[C@H]1[C@@H](C(C)C)O[C@@H](C(C)C)O[C@H]1C(F)(F)F | > 100 µM (inactive) | > 100 µM (inactive) | > 100 µM (inactive) | > 100 µM (inactive) | > 100 µM (inactive) | > 100 µM (inactive) | > 100 µM (inactive) | > 100 µM (inactive) | > 100 µM (inactive) | > 100 µM (inactive) | > 100 µM (inactive) | > 100 µM (inactive) | > 100 µM (inactive) | > 100 µM (inactive) | > 100 µM (inactive) | > 100 µM (inactive) | > 100 µM (inactive) | > 100 µM (inactive) | > 100 µM (inactive) | > 100 µM (inactive)
Nc1nc(Cl)c(N)c(NCC2(CO)CC2)n1 | > 100 µM (inactive) | > 100 µM (inactive) | > 100 µM (inactive) | > 100 µM (inactive) | > 100 µM (inactive) | > 100 µM (inactive) | > 100 µM (inactive) | > 100 µM (inactive) | > 100 µM (inactive) | > 100 µM (inactive) | > 100 µM (inactive) | > 100 µM (inactive) | > 100 µM (inactive) | > 100 µM (inactive) | > 100 µM (inactive) | > 100 µM (inactive) | > 100 µM (inactive) | > 100 µM (inactive) | > 100 µM (inactive) | > 100 µM (inactive)
C=CC(OC(C)=O)c1ccc(OC(=O)C(C)C)c(OC)c1 (stereo not drawn) | 2.86 µM (inactive) | 13.3 µM (inactive) | 1.94 µM (inactive) | 2.01 µM (inactive) | 5.73 µM (inactive) | 9.4 µM (inactive) | 16.6 µM (inactive) | 9.4 µM (inactive) | 11.2 µM (inactive) | 3.63 µM (inactive) | 5.22 µM (inactive) | 6.64 µM (inactive) | 1.54 µM (inactive) | 5.85 µM (inactive) | 4.86 µM (inactive) | 4.72 µM (inactive) | 9.86 µM (inactive) | 2.67 µM (inactive) | 3.15 µM (inactive) | 1.77 µM (inactive)
O=S(=O)(O)c1cccc2cccc(/N=N/c3c(O)ccc4ccccc34)c12 | > 100 µM (inactive) | > 100 µM (inactive) | > 100 µM (inactive) | > 100 µM (inactive) | > 100 µM (inactive) | > 100 µM (inactive) | > 100 µM (inactive) | > 100 µM (inactive) | > 100 µM (inactive) | > 100 µM (inactive) | > 100 µM (inactive) | > 100 µM (inactive) | > 100 µM (inactive) | > 100 µM (inactive) | > 100 µM (inactive) | > 100 µM (inactive) | > 100 µM (inactive) | > 100 µM (inactive) | > 100 µM (inactive) | > 100 µM (inactive)
COC1C(CO)OC(n2c3c(Cl)cccc3c3c4c(c5c6cccc(Cl)c6[nH]c5c32)C(=O)NC4=O)C(O)C1O (stereo not drawn) | 0.154 µM (active) | 0.113 µM (active) | 0.223 µM (active) | 0.0367 µM (active) | 0.306 µM (active) | 0.153 µM (active) | 0.303 µM (active) | 0.195 µM (active) | 0.367 µM (active) | 0.104 µM (active) | 0.324 µM (active) | 0.31 µM (active) | 0.21 µM (active) | 0.097 µM (active) | 0.234 µM (active) | 0.276 µM (active) | 0.219 µM (active) | 0.614 µM (active) | 0.142 µM (active) | 0.169 µM (active)
Cc1cnc2nc(-c3cccc4ccccc34)cc(O)c2c1 | 26 µM (inactive) | 0.000518 µM (active) | 0.000289 µM (active) | 0.000692 µM (active) | 0.000211 µM (active) | 0.00179 µM (active) | 0.000706 µM (active) | 0.000618 µM (active) | 0.000723 µM (active) | 0.00869 µM (active) | 0.000216 µM (active) | 0.00107 µM (active) | 0.000261 µM (active) | 0.000652 µM (active) | 0.000407 µM (active) | 0.00493 µM (active) | 0.000254 µM (active) | 0.000551 µM (active) | 0.000462 µM (active) | 0.000646 µM (active)
